According to ChEMBL document CHEMBL1201862, “PubChem BioAssay data set” (2004):
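The compound was tested at five concentrations on cells cultured in 96-well plates, with a 48-hour exposure period. GI50 is the concentration that inhibits growth by half.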 Activity calls are given as the source filed them. Rule as the data show it: active = GI50 up to about 1.1 µM and inactive = higher.

What was measured:
Test in all cases: NCI anticancer screen, dose series, 48 h
MDA-N = test system: MDA-N
HL-60 = test system: HL-60
SF-268 = test system: SF-268
COLO 205 = test system: COLO 205
BT-549 = test system: BT-549
UACC-257 = test system: UACC-257
SN12C = test system: SN12C
T47D = test system: T47D
NCI-H522 = test system: NCI-H522
OVCAR-8 = test system: OVCAR-8
U-251 = test system: U-251
IGROV-1 = test system: IGROV-1
HT-29 = test system: HT-29
DMS-114 = test system: DMS-114
LOX IMVI = test system: LOX IMVI
HOP-18 = test system: HOP-18
HOP-92 = test system: HOP-92
CAKI-1 = test system: CAKI-1
SK-MEL-2 = test system: SK-MEL-2
786-0 = test system: 786-0
SK-MEL-28 = test system: SK-MEL-28
SF-295 = test system: SF-295
HCT-116 = test system: HCT-116
M19-MEL = test system: M19-MEL
TK-10 = test system: TK-10
OVCAR-5 = test system: OVCAR-5
EKVX = test system: EKVX
HCC 2998 = test system: HCC 2998
SNB-19 = test system: SNB-19
Hs-578T = test system: Hs-578T
A549 = test system: A549
K562 = test system: K562
SK-OV-3 = test system: SK-OV-3
A498 = test system: A498
CCRF-CEM = test system: CCRF-CEM
KM12 = test system: KM12
Malme-3M = test system: Malme-3M
NCI/ADR-RES = test system: NCI/ADR-RES
OVCAR-3 = test system: OVCAR-3
UACC-62 = test system: UACC-62
RPMI-8226 = test system: RPMI-8226
MDA-MB-435 = test system: MDA-MB-435
MCF7 = test system: MCF7
UO-31 = test system: UO-31
SW-620 = test system: SW-620
MOLT-4 = test system: MOLT-4
SF-539 = test system: SF-539
SNB-78 = test system: SNB-78
PC-3 = test system: PC-3
ACHN = test system: ACHN
M14 = test system: M14
DMS-273 = test system: DMS-273
OVCAR-4 = test system: OVCAR-4
DU-145 = test system: DU-145
SR = test system: SR
RXF 393 = test system: RXF 393
NCI-H226 = test system: NCI-H226
SNB-75 = test system: SNB-75
NCI-H23 = test system: NCI-H23
HCT-15 = test system: HCT-15
KM-20L2 = test system: KM-20L2
DLD-1 = test system: DLD-1
SK-MEL-5 = test system: SK-MEL-5
MDA-MB-231 = test system: MDA-MB-231
HOP-62 = test system: HOP-62
XF498 = test system: XF498
NCI-H460 = test system: NCI-H460

CC1=C2C(=CO[C@H](C)[C@H]2C)C(O)=C(C(=O)O)C1=O [CITRININ]
GI50 (MDA-N): 26.2 µM (inactive) | GI50 (HL-60): 11.1 µM (inactive) | GI50 (SF-268): 7 µM (inactive) | GI50 (COLO 205): 33.9 µM (inactive) | GI50 (BT-549): 13.3 µM (inactive) | GI50 (UACC-257): 29.7 µM (inactive) | GI50 (SN12C): 21.7 µM (inactive) | GI50 (T47D): 29.2 µM (inactive) | GI50 (NCI-H522): 12.4 µM (inactive) | GI50 (OVCAR-8): 13.2 µM (inactive) | GI50 (U-251): 14.6 µM (inactive) | GI50 (IGROV-1): 18.6 µM (inactive) | GI50 (HT-29): 33.9 µM (inactive) | GI50 (DMS-114): 11.5 µM (inactive) | GI50 (LOX IMVI): 16.3 µM (inactive) | GI50 (HOP-18): 15.2 µM (inactive) | GI50 (HOP-92): 25.1 µM (inactive) | GI50 (CAKI-1): 27.3 µM (inactive) | GI50 (SK-MEL-2): 16.3 µM (inactive) | GI50 (786-0): 24.5 µM (inactive) | GI50 (SK-MEL-28): 31.8 µM (inactive) | GI50 (SF-295): 35.8 µM (inactive) | GI50 (HCT-116): 25.8 µM (inactive) | GI50 (M19-MEL): 24.5 µM (inactive) | GI50 (TK-10): 24.5 µM (inactive) | GI50 (OVCAR-5): 59.8 µM (inactive) | GI50 (EKVX): 18.7 µM (inactive) | GI50 (HCC 2998): 19.1 µM (inactive) | GI50 (SNB-19): 21.9 µM (inactive) | GI50 (Hs-578T): 27.5 µM (inactive) | GI50 (A549): 70.5 µM (inactive) | GI50 (K562): 15.3 µM (inactive) | GI50 (SK-OV-3): 71.8 µM (inactive) | GI50 (A498): 0.782 µM (active) | GI50 (CCRF-CEM): 14.8 µM (inactive) | GI50 (KM12): 26.9 µM (inactive) | GI50 (Malme-3M): 50.1 µM (inactive) | GI50 (NCI/ADR-RES): 43.8 µM (inactive) | GI50 (OVCAR-3): 16.7 µM (inactive) | GI50 (UACC-62): 20.3 µM (inactive) | GI50 (RPMI-8226): 15.8 µM (inactive) | GI50 (MDA-MB-435): 27 µM (inactive) | GI50 (MCF7): 15.7 µM (inactive) | GI50 (UO-31): 48.3 µM (inactive) | GI50 (SW-620): 20.6 µM (inactive) | GI50 (MOLT-4): 13.1 µM (inactive) | GI50 (SF-539): 12.3 µM (inactive) | GI50 (SNB-78): 11.2 µM (inactive) | GI50 (PC-3): 32 µM (inactive) | GI50 (ACHN): 21 µM (inactive) | GI50 (M14): 23 µM (inactive) | GI50 (DMS-273): 44 µM (inactive) | GI50 (OVCAR-4): 32.9 µM (inactive) | GI50 (DU-145): 24.2 µM (inactive) | GI50 (SR): 15.6 µM (inactive) | GI50 (RXF 393): 13.2 µM (inactive) | GI50 (NCI-H226): 23.3 µM (inactive) | GI50 (SNB-75): 32.6 µM (inactive) | GI50 (NCI-H23): 20.5 µM (inactive) | GI50 (HCT-15): 16.9 µM | GI50 (KM-20L2): 23.8 µM (inactive) | GI50 (DLD-1): 18.2 µM (inactive) | GI50 (SK-MEL-5): 12.8 µM (inactive) | GI50 (MDA-MB-231): 23.2 µM (inactive) | GI50 (HOP-62): 17.1 µM (inactive) | GI50 (XF498): 5.55 µM (inactive)

COc1cc2ccc(=O)oc2cc1O [SCOPOLETIN]
GI50 (MDA-N): > 100 µM (inactive) | GI50 (HL-60): 34.8 µM (inactive) | GI50 (SF-268): 92.3 µM (inactive) | GI50 (COLO 205): 142 µM (inactive) | GI50 (BT-549): > 100 µM (inactive) | GI50 (UACC-257): 71.9 µM (inactive) | GI50 (SN12C): 51.4 µM (inactive) | GI50 (T47D): > 100 µM (inactive) | GI50 (NCI-H522): 67.8 µM (inactive) | GI50 (OVCAR-8): 52.1 µM (inactive) | GI50 (U-251): 24.8 µM (inactive) | GI50 (IGROV-1): 69.3 µM (inactive) | GI50 (HT-29): 161 µM (inactive) | GI50 (DMS-114): 28.5 µM (inactive) | GI50 (LOX IMVI): 61.9 µM (inactive) | GI50 (HOP-18): 150 µM (inactive) | GI50 (HOP-92): 206 µM (inactive) | GI50 (CAKI-1): 119 µM (inactive) | GI50 (SK-MEL-2): 109 µM (inactive) | GI50 (786-0): > 100 µM (inactive) | GI50 (SK-MEL-28): 73.3 µM (inactive) | GI50 (SF-295): 19.7 µM (inactive) | GI50 (HCT-116): 56.4 µM (inactive) | GI50 (M19-MEL): 72.4 µM (inactive) | GI50 (TK-10): > 100 µM (inactive) | GI50 (OVCAR-5): 156 µM (inactive) | GI50 (EKVX): 57.5 µM (inactive) | GI50 (HCC 2998): 98.4 µM (inactive) | GI50 (SNB-19): 44 µM (inactive) | GI50 (Hs-578T): > 100 µM (inactive) | GI50 (A549): 40.1 µM (inactive) | GI50 (K562): 152 µM (inactive) | GI50 (SK-OV-3): 94.2 µM (inactive) | GI50 (A498): 80.4 µM (inactive) | GI50 (CCRF-CEM): 30.4 µM (inactive) | GI50 (KM12): 36.1 µM (inactive) | GI50 (Malme-3M): 156 µM (inactive) | GI50 (NCI/ADR-RES): 56.2 µM (inactive) | GI50 (OVCAR-3): 69.8 µM (inactive) | GI50 (UACC-62): 71.3 µM (inactive) | GI50 (RPMI-8226): 46.1 µM (inactive) | GI50 (MDA-MB-435): > 100 µM (inactive) | GI50 (MCF7): 118 µM (inactive) | GI50 (UO-31): 38 µM (inactive) | GI50 (SW-620): 67.3 µM (inactive) | GI50 (MOLT-4): 28.8 µM (inactive) | GI50 (SF-539): 53.3 µM (inactive) | GI50 (SNB-78): 307 µM (inactive) | GI50 (PC-3): > 100 µM (inactive) | GI50 (ACHN): > 100 µM (inactive) | GI50 (M14): > 100 µM (inactive) | GI50 (DMS-273): 36.3 µM (inactive) | GI50 (OVCAR-4): 101 µM (inactive) | GI50 (DU-145): > 100 µM (inactive) | GI50 (SR): > 100 µM (inactive) | GI50 (NCI-H460): 18.4 µM (inactive) | GI50 (RXF 393): 128 µM (inactive) | GI50 (NCI-H226): 86.3 µM (inactive) | GI50 (SNB-75): 50.8 µM (inactive) | GI50 (NCI-H23): 69 µM (inactive) | GI50 (HCT-15): 25.1 µM | GI50 (KM-20L2): 187 µM (inactive) | GI50 (DLD-1): 83.2 µM (inactive) | GI50 (SK-MEL-5): 78 µM (inactive) | GI50 (MDA-MB-231): > 100 µM (inactive) | GI50 (HOP-62): 134 µM (inactive) | GI50 (XF498): 63.7 µM (inactive)
